# According to patent publication US11643438B2, “Antimicrobial peptides and methods of use” (priority 2018, dated 2023):
# Read-outs that look alike come from different tables or passages of the source. *1 amine or outer side, *2 acyl side, *3 side chain or, on linkers, in order; H or OH if unused. Where a SMILES comes first, the peptide text is derived from it. [ ]: non-standard residue; d: D form. X2 = CC[C@H](C)C[C@H](C)C[C@H](C)C[C@H](N[*:1])C(=O)[*:2]; X1 = CC[C@@H](C)[C@@H](O[*:1])C(=O)[*:2]; NMeVal(β-OH) = CN[C@H](C(=O)O)C(C)(C)O; aIle = CC[C@@H](C)[C@H](N)C(=O)O; NMeV = CN[C@H](C(=O)O)C(C)C; Sar = CNCC(=O)O
# Legend:
# Candida kefyr 12 = assay: Antifungal MIC80 assay, clinical yeast isolates
# [1] = tested on: Paecilomyces lilacinus 165E10; assay: Antifungal MIC80/MFC assay, fungal pathogen panel
# [2] = tested on: Candida duobushaemulonii 392; assay: Antifungal MIC80 assay, clinical yeast isolates
# Candida krusei 25 = assay: Antifungal MIC80 assay, clinical yeast isolates
# Candida parapsilosis 18 = assay: Antifungal MIC80 assay, clinical yeast isolates
# Candida auris 382 = assay: Antifungal MIC80 assay, clinical yeast isolates
# [3] = tested on: Candida krusei ATCC 6258 (Y-7179); assay: Antifungal MIC80/MFC assay, fungal pathogen panel
# Candida auris 386 = assay: Antifungal MIC80 assay, clinical yeast isolates
# Candida glabrata 2 = assay: Antifungal MIC80 assay, clinical yeast isolates
# Candida parapsilosis 15 = assay: Antifungal MIC80 assay, clinical yeast isolates
# Candida albicans 21 = assay: Antifungal MIC80 assay, clinical yeast isolates
# Kodameae ohmeri 396 = assay: Antifungal MIC80 assay, clinical yeast isolates
# [4] = tested on: Candida duobushaemulonii 394; assay: Antifungal MIC80 assay, clinical yeast isolates
# [5] = tested on: Saccharomyces cerevisiae 400; assay: Antifungal MIC80 assay, clinical yeast isolates
# Candida albicans SC5314 [6] = assay: Antifungal MIC80/MFC assay, fungal pathogen panel
# Candida glabrata 22 = assay: Antifungal MIC80 assay, clinical yeast isolates
# Candida auris 381 [7] = assay: Effect of serum on antifungal activity (MIC80); type: cell-based
# Protocol: (§1) Given that compound 1 contains a large number of hydrophobic amino acid residues that might promote non-specific protein binding resulting in a loss of in vivo activity, the efficacy of the compound was tested in the presence of blood serum against four fungal pathogens (C. albicans, C. auris, C. neoformans, and A. fumigatus) (Table 3).
# [8] = tested on: Cryptococcus neoformans H99; assay: Effect of serum on antifungal activity (MIC80); type: cell-based
# Protocol: as §1
# [9] = tested on: Aspergillus fumigatus ATCC MYA-3627; assay: Effect of serum on antifungal activity (MIC80); type: cell-based
# Protocol: as §1
# Candida albicans SC5314 [10] = assay: Effect of serum on antifungal activity (MIC80); type: cell-based
# Protocol: as §1
# [11] = tested on: Aspergillus niger FGSC A732; assay: Antifungal MIC80/MFC assay, fungal pathogen panel
# Candida auris 383 = assay: Antifungal MIC80 assay, clinical yeast isolates
# Candida auris 387 = assay: Antifungal MIC80 assay, clinical yeast isolates
# Candida auris 388 = assay: Antifungal MIC80 assay, clinical yeast isolates
# [12] = tested on: Aspergillus fumigatus MYA 3627; assay: Antifungal MIC80/MFC assay, fungal pathogen panel; conditions: MYA3627
# Candida glabrata 11 = assay: Antifungal MIC80 assay, clinical yeast isolates
# Candida glabrata 16 = assay: Antifungal MIC80 assay, clinical yeast isolates
# Candida albicans 1 = assay: Antifungal MIC80 assay, clinical yeast isolates
# Candida auris 381 [13] = assay: Antifungal MIC80 assay, clinical yeast isolates
# Candida parapsilosis 28 = assay: Antifungal MIC80 assay, clinical yeast isolates
# [14] = tested on: Rhizopus oryzae FGSC 9543; assay: Antifungal MIC80/MFC assay, fungal pathogen panel
# Nodulosporium spp. = assay: MIC/MFC against phytopathogenic (endophytic) fungi
# Fusarium tricinctum = assay: MIC/MFC against phytopathogenic (endophytic) fungi
# [15] = Candida krusei ATCC 6258 (Y-7179)
# [16] = 0% serum (v/v) in growth medium
# [17] = 5% serum (v/v) in growth medium
# [18] = 10% serum (v/v) in growth medium
# [19] = Purpureocillium lilacinum, 165E10
smiles,measurement,setting,value
"C[C@@H]1[C@H](O)[C@@H](C)/C=C/C=C/C=C/C=C/C=C/C=C/C=C/[C@H](O[C@@H]2O[C@H](C)[C@@H](O)[C@H](N)[C@@H]2O)C[C@@H]2O[C@](O)(C[C@@H](O)C[C@@H](O)[C@H](O)CC[C@@H](O)C[C@@H](O)CC(=O)O[C@H]1C)C[C@H](O)[C@H]2C(=O)O [AMB, amphotericin B]",MIC80,Candida kefyr 12; Candida kefyr 12,0.3 µM
same,MFC,[1]; Paecilomyces lilacinus 165E10,>10 µM
same,MIC80,[1]; Paecilomyces lilacinus 165E10,>10 µM
same,MIC80,"[2]; Candida duobushaemulonii 392, multidrug-resistant",5 µM
same,MIC80,Candida krusei 25; Candida krusei 25,1.25 µM
same,MIC80,Candida parapsilosis 18; Candida parapsilosis 18,1.25 µM
same,MIC80,"Candida auris 382; Candida auris 382, multidrug-resistant",1.25 µM
same,MFC,[3]; [15],5 µM
same,MIC80,[3]; [15],2.5 µM
same,MIC80,"Candida auris 386; Candida auris 386, multidrug-resistant",2.5 µM
same,MIC80,Candida glabrata 2; Candida glabrata 2,0.3 µM
same,MIC80,Candida parapsilosis 15; Candida parapsilosis 15,2.5 µM
same,MIC80,Candida albicans 21,0.6 µM
same,MIC80,"Kodameae ohmeri 396; Kodameae ohmeri 396, multidrug-resistant",1.25 µM
same,MIC80,"[4]; Candida duobushaemulonii 394, multidrug-resistant",5 µM
same,MIC80,"[5]; Saccharomyces cerevisiae 400, multidrug-resistant",1.25 µM
same,MFC,Candida albicans SC5314 [6],2.5 µM
same,MIC80,Candida albicans SC5314 [6],0.6 µM
same,MIC80,Candida glabrata 22; Candida glabrata 22,0.3 µM
same,MIC80,Candida auris 381 [7]; [16],2.5 µM
same,MIC80,Candida auris 381 [7]; [17],<0.15 µM
same,MIC80,Candida auris 381 [7]; [18],0.3 µM
same,MIC80,"[8]; Cryptococcus neoformans H99, 0% serum (v/v) in growth medium",1.25 µM
same,MIC80,"[8]; Cryptococcus neoformans H99, 5% serum (v/v) in growth medium",<0.15 µM
same,MIC80,"[8]; Cryptococcus neoformans H99, 10% serum (v/v) in growth medium",<0.15 µM
same,MIC80,[9]; [16],2.5 µM
same,MIC80,[9]; [17],<0.07 µM
same,MIC80,[9]; [18],0.15 µM
same,MIC80,"Candida albicans SC5314 [10]; Candida albicans SC5314, 0% serum (v/v) in growth medium",0.6 µM
same,MIC80,"Candida albicans SC5314 [10]; Candida albicans SC5314, 5% serum (v/v) in growth medium",<0.15 µM
same,MIC80,"Candida albicans SC5314 [10]; Candida albicans SC5314, 10% serum (v/v) in growth medium",<0.15 µM
same,MFC,[11]; Aspergillus niger FGSC A732,2.5 µM
same,MIC80,[11]; Aspergillus niger FGSC A732,0.6 µM
same,MIC80,"Candida auris 383; Candida auris 383, multidrug-resistant",2.5 µM
same,MIC80,"Candida auris 387; Candida auris 387, multidrug-resistant",2.5 µM
same,MIC80,"Candida auris 388; Candida auris 388, multidrug-resistant",2.5 µM
same,MFC,[12],2.5 µM
same,MIC80,[12],2.5 µM
same,MIC80,Candida glabrata 11; Candida glabrata 11,0.3 µM
same,MIC80,Candida glabrata 16; Candida glabrata 16,0.15 µM
same,MIC80,Candida albicans 1,0.6 µM
same,MIC80,"Candida auris 381 [13]; Candida auris 381, multidrug-resistant",1.25 µM
same,MIC80,Candida parapsilosis 28; Candida parapsilosis 28,1.25 µM
same,MFC,[14]; Rhizopus oryzae FGSC 9543,0.3 µM
same,MIC80,[14]; Rhizopus oryzae FGSC 9543,0.3 µM
"CC[C@H](C)C[C@H](C)C[C@H](C)C[C@@H]1NC(=O)[C@H](C(C)C)N(C)C(=O)[C@@H]([C@H](C)CC)OC(=O)[C@H](C(C)(C)O)N(C)C(=O)[C@H](CC(C)C)NC(=O)[C@H](C(C)C)N(C)C(=O)[C@H]([C@H](C)CC)NC(=O)[C@@H]2CCCN2C(=O)CN(C)C1=O [Compound 1, persephacin] (cyclo(L[NMeVal(β-OH)][X1][NMeV][X2][Sar]P[aIle][NMeV]))",MIC80,"Candida kefyr 12; Kluyveromyces marxianus, 12",1.25 µM
same,MFC,[1]; [19],> 10 µM
same,MIC80,[1]; [19],2.5 µM
same,MIC80,"[2]; Candidozyma duobushaemuli, 392",2.5 µM
same,MIC80,"Candida krusei 25; Pichia kudriavzevii, 25",1.25 µM
same,MIC80,"Candida parapsilosis 18; Lodderomyces parapsilosis, 18",1.25 µM
same,MIC80,"Candida auris 382; Candidozyma auris, 382",2.5 µM
same,MFC,"[3]; Pichia kudriavzevii, ATCC6258",2.5 µM
same,MIC80,"[3]; Pichia kudriavzevii, ATCC6258",1.25 µM
same,MIC80,"Candida auris 386; Candidozyma auris, 386",2.5 µM
same,MIC80,"Candida glabrata 2; Nakaseomyces glabratus, 2",0.15 µM
same,MIC80,"Candida parapsilosis 15; Lodderomyces parapsilosis, 15",2.5 µM
same,MIC80,Candida albicans 21,1.25 µM
same,MFC,Nodulosporium spp.,> 20 µM
same,MIC,Nodulosporium spp.,> 20 µM
same,MFC,"Nodulosporium spp.; Nodulosporium spp., […]",neither compound showed MIC or MFC activity
same,MIC,"Nodulosporium spp.; Nodulosporium spp., […]",neither compound showed MIC or MFC activity
same,MIC80,Kodameae ohmeri 396; 396,2.5 µM
same,MIC80,"[4]; Candidozyma duobushaemuli, 394",2.5 µM
same,MFC,Fusarium tricinctum,10 µM
same,MIC,Fusarium tricinctum,5 µM
same,MIC80,"[5]; Saccharomyces cerevisiae, 400",2.5 µM
same,MFC,Candida albicans SC5314 [6],1.25 µM
same,MIC80,Candida albicans SC5314 [6],0.3 µM
same,MIC80,"Candida glabrata 22; Nakaseomyces glabratus, 22",0.6 µM
same,MIC80,Candida auris 381 [7]; [17],1.25 µM
same,MIC80,Candida auris 381 [7]; [18],1.25 µM
same,MIC80,"Candida auris 381 [7]; Candidozyma auris, 0% serum (v/v) in growth medium",1.25 µM
same,MIC80,"[8]; Cryptococcus neoformans, H99, Cryptococcus neoformans H99, 0% serum (v/v) in growth medium",0.6 µM
same,MIC80,"[8]; Cryptococcus neoformans, H99, Cryptococcus neoformans H99, 5% serum (v/v) in growth medium",< 0.15 µM
same,MIC80,"[8]; Cryptococcus neoformans, H99, Cryptococcus neoformans H99, 10% serum (v/v) in growth medium",< 0.15 µM
same,MIC80,[9]; [16],2.5 µM
same,MIC80,[9]; [17],2.5 µM
same,MIC80,[9]; [18],2.5 µM
same,MIC80,"Candida albicans SC5314 [10]; Candida albicans, SC5314, Candida albicans SC5314, 0% serum (v/v) in growth medium",0.6 µM
same,MIC80,"Candida albicans SC5314 [10]; Candida albicans, SC5314, Candida albicans SC5314, 5% serum (v/v) in growth medium",0.15 µM
same,MIC80,"Candida albicans SC5314 [10]; Candida albicans, SC5314, Candida albicans SC5314, 10% serum (v/v) in growth medium",0.3 µM
same,MFC,"[11]; Aspergillus niger, FGSCA732",> 10 µM
same,MIC80,"[11]; Aspergillus niger, FGSCA732",1.25 µM
same,MIC80,"Candida auris 383; Candidozyma auris, 383",2.5 µM
same,MIC80,"Candida auris 387; Candidozyma auris, 387",2.5 µM
same,MIC80,"Candida auris 388; Candidozyma auris, 388",2.5 µM
same,MFC,[12],5 µM
same,MIC80,[12],2.5 µM
same,MIC80,"Candida glabrata 11; Nakaseomyces glabratus, 11",0.6 µM
same,MIC80,"Candida glabrata 16; Nakaseomyces glabratus, 16",0.3 µM
same,MIC80,Candida albicans 1,2.5 µM
same,MIC80,"Candida auris 381 [13]; Candidozyma auris, 381",2.5 µM
same,MIC80,"Candida parapsilosis 28; Lodderomyces parapsilosis, 28",2.5 µM
same,MFC,"[14]; Rhizopus arrhizus, FGSC9543",> 10 µM
same,MIC80,"[14]; Rhizopus arrhizus, FGSC9543",> 10 µM
